pEC50: −log10 of the molar value.
Biological target: human 5-HT2C receptor (Homo sapiens, UniProt P28335, I156V/I160V/N158S)
Experiment: cell-based

human 5-HT2C receptor, sequence (P28335 33-458 I156V/N158S/I160V limits assumed): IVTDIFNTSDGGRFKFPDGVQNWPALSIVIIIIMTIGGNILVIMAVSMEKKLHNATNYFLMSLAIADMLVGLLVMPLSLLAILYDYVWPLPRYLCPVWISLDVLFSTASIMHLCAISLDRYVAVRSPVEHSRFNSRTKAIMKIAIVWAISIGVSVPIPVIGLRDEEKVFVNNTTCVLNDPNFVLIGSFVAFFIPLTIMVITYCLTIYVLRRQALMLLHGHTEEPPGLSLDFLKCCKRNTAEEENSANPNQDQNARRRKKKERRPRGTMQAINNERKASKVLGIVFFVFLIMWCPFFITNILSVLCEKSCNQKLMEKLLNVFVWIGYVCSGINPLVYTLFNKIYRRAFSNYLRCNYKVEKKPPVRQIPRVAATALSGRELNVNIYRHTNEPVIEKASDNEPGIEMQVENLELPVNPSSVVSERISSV

Row | Structure (SMILES) | pEC50
1 | CC1(N)CCN(C(=O)C2CN(c3c4c(nc5ccnn35)CCNCC4)C2)CC1 [Example 37.18] | 8.70
2 | Clc1ccncc1OC1CN(c2c3c(nc4ccnn24)CCNCC3)C1 [Example 35.35] | 7.17
3 | Cc1cnn2c(N3CC(C(=O)N4CCc5ccc(C(F)(F)F)cc54)C3)c3c(nc12)CCNCC3 [Example 31.246] | 6.58
4 | Cc1ccc(OC2CN(c3c4c(nc5ccnn35)CCNCC4)C2)cn1 [Example 35.52] | 6.83
5 | Clc1ccccc1OCC1CN(c2c3c(nc4ccnn24)CCNCC3)C1 [Example 15.6] | 8.30
6 | CN(Cc1c(Cl)cccc1Cl)C(=O)C1CN(c2c3c(nc4ccnn24)CCNCC3)C1 [Example 31.160] | 6.34
7 | Fc1ccc2[nH]c(C3CN(c4c5c(nc6ccnn46)CCNCC5)C3)nc2c1 [Example 34.14] | 6.43
8 | O=C(CC1CN(c2c3c(nc4ccnn24)CCNCC3)C1)N1CCc2ccccc21 [Example 33.1] | 7.72
9 | CN(C)CCCN(C)C(=O)C1CN(c2c3c(nc4ccnn24)CCNCC3)C1 [Example 37.41] | 8.10
10 | Fc1cc(Cl)ccc1OC1CN(c2c3c(nc4ccnn24)CCNCC3)C1 [Example 35.22] | 7.09
11 | O=C(NC1CCCCC1C(F)(F)F)C1CN(c2c3c(nc4ccnn24)CCNCC3)C1 (stereo not drawn) [Example 37.58] | 6.65
12 | CCN(C)C(=O)C1CN(c2c3c(nc4ccnn24)CCNCC3)C1 [Example 31.4] | 6.16
13 | CC(C)N(C)C(=O)C1CN(c2c3c(nc4ccnn24)CCNCC3)C1 [Example 31.6] | 5.23
14 | CC1(C(=O)N2CCc3c(cccc3C(F)(F)F)C2)CN(c2c3c(nc4ccnn24)CCNCC3)C1 [Example 32.3] | 5.71
15 | CN(Cc1ccc(Cl)cc1)C(=O)C1CN(c2c3c(nc4c(Br)cnn24)CCNCC3)C1 [Example 31.141] | 7.06
16 | C[C@@H]1C[C@H](C)CN(C(=O)C2CN(c3c4c(nc5ccnn35)CCNCC4)C2)C1 [Example 31.180] | 7.44
17 | CN(C)C(=O)[C@H]1CCN(c2c3c(nc4ccnn24)CCNCC3)C1 [Example 1.63] | 5.57
18 | O=C(C1CN(c2c3c(nc4ccnn24)CCNCC3)C1)N1CCc2ccc(Br)cc2C1 [Example 31.209] | 7.02
19 | CN1CCC(CNC(=O)C2CN(c3c4c(nc5ccnn35)CCNCC4)C2)CC1 [Example 37.89] | 7.72
20 | Cc1cnn2c(N3CC(C(=O)N4CCC5(CCOC5)CC4)C3)c3c(nc12)CCNCC3 [Example 31.240] | 7.54
21 | O=C(C1CN(c2c3c(nc4ccnn24)CCNCC3)C1)N1CC[C@H](Oc2cccc(Cl)c2)C1 [Example 31.213] | 6.99
22 | CC1CC(c2ccccc2)CN1C(=O)C1CN(c2c3c(nc4ccnn24)CCNCC3)C1 (stereo not drawn) [Example 31.128] | 7.27
23 | CCCCn1c(C2CN(c3c4c(nc5ccnn35)CCNCC4)C2)nc2ccccc21 [Example 34.26] | 5.94
24 | CN(C(=O)C1CN(c2c3c(nc4ccnn24)CCNCC3)C1)c1ccccc1 [Example 31.5] | 6.13
25 | Cn1c(C2CN(c3c4c(nc5ccnn35)CCNCC4)C2)nc2cc(C#N)ccc21 [Example 34.18] | 6.41
26 | c1ccc2sc(C3CN(c4c5c(nc6ccnn46)CCNCC5)C3)nc2c1 [Example 12, 10-(3-Benzothiazol-2-yl-azetidin-1-yl)-6,7,8,9-tetrahydro-5H-1,4,7,10a-tetraaza-cyclohepta[f]indene] | 6.60

Row | Structure (SMILES) | pEC50
27 | O=C(C1CN(c2c3c(nc4ccnn24)CCNCC3)C1)N1CCC(O)(c2ccc(C(F)(F)F)cc2)CC1 [Example 31.227] | 7.04
28 | FC1(F)CN(c2c3c(nc4ccnn24)CCNCC3)C1 [Example 1.4] | 5.62
29 | O=C(C1CN(c2c3c(nc4ccnn24)CCNCC3)C1)N1CCN2CCCC2C1 (stereo not drawn) [Example 37.9] | 8.52
30 | CC1(C)CCN(C(=O)C2CN(c3c4c(nc5c(Br)cnn35)CCNCC4)C2)C1 [Example 31.135] | 7.34
31 | O=C(C1CN(c2c3c(nc4ccnn24)CCNCC3)C1)N1CCC(C(F)(F)F)CC1 [Example 31.83] | 8.10
32 | O=C(NC1CCC(C(F)(F)F)CC1)C1CN(c2c3c(nc4ccnn24)CCNCC3)C1 (stereo not drawn) [Example 37.60] | 7.31
33 | CCn1c(C2CN(c3c4c(nc5ccnn35)CCNCC4)C2)nc2ccccc21 [Example 34.2] | 6.82
34 | Cc1ncccc1OC1CN(c2c3c(nc4ccnn24)CCNCC3)C1 [Example 35.24] | 6.92
35 | O=C(C1CN(c2c3c(nc4ccnn24)CCNCC3)C1)N1C2CCCCC1CCC2 [Example 31.158] | 5.91
36 | CN(Cc1ccc(Br)cc1)C(=O)C1CN(c2c3c(nc4ccnn24)CCNCC3)C1 [Example 31.80] | 7.52
37 | Fc1ccc(OCC2CN(c3c4c(nc5ccnn35)CCNCC4)C2)cc1 [Example 15, 10-[3-(4-Fluoro-phenoxymethyl)-azetidin-1-yl]-6,7,8,9-tetrahydro-5H-1,4,7,10a-tetraaza-cyclohepta[f]indene] | 7.37
38 | Fc1ccc(Cl)c(OCC2CN(c3c4c(nc5ccnn35)CCNCC4)C2)c1 [Example 15.15] | 8.70
39 | O=C(NC1CCOC1)C1CN(c2c3c(nc4ccnn24)CCNCC3)C1 (stereo not drawn) [Example 37.67] | 7.17
40 | OC1CCN(c2c3c(nc4ccnn24)CCNCC3)CC1 [Example 1.36] | 5.73
41 | OC[C@H]1CCN1c1c2c(nc3ccnn13)CCNCC2 [Example 8.2] | 6.98
42 | c1cnc2ccc(OC3CN(c4c5c(nc6ccnn46)CCNCC5)C3)cc2c1 [Example 35.43] | 6.68
43 | c1ccc(CCn2c(C3CN(c4c5c(nc6ccnn46)CCNCC5)C3)nc3ccccc32)cc1 [Example 34.36] | 6.45
44 | c1ccc2c(c1)ncn2C1CCN(c2c3c(nc4ccnn24)CCNCC3)CC1 [Example 1.42] | 5.02
45 | CCNC(=O)C1CN(c2c3c(nc4ccnn24)CCNCC3)C1 [Example 37.95] | 6.13
46 | O=C(C1CN(c2c3c(nc4ccnn24)CCNCC3)C1)N1CCCC(F)(F)CC1 [Example 40, (4,4-Difluoro-perhydro-azepin-1-yl)-[1-(6,7,8,9-tetrahydro-5H-1,4,7,10a-tetraaza-cyclohept[f]inden-10-yl)-azetidin-3-yl]-methanone] | 8.22
47 | O=C(C1CN(c2c3c(nc4ccnn24)CCNCC3)C1)N1CCC(c2ccccc2)C1 (stereo not drawn) [Example 31.98] | 7.35
48 | CC(NC(=O)C1CN(c2c3c(nc4ccnn24)CCNCC3)C1)C(C)(C)C (stereo not drawn) [Example 37.111] | 6.86
49 | CCC1CCN(C(=O)C2CN(c3c4c(nc5ccnn35)CCNCC4)C2)CC1 [Example 31.68] | 7.34
50 | O=C(NCc1ccccc1)C1CCCN(c2c3c(nc4ccnn24)CCNCC3)C1 (stereo not drawn) [Example 1.22] | 5.85
51 | CCc1cnn2c(N3CCC3)c3c(nc12)CCNCC3 [Example 25.2] | 7.92
52 | Cn1c(C2CN(c3c4c(nc5ccnn35)CCNCC4)C2)nc2cc(Cl)ccc21 [Example 34.3] | 6.38

Row | Structure (SMILES) | pEC50
53 | COc1ccc2c(c1)CCN2C(=O)C1CN(c2c3c(nc4ccnn24)CCNCC3)C1 [Example 31.218] | 7.40
54 | O=C(O)C1CN(c2c3c(nc4ccnn24)CCNCC3)C1 [Example 1.14] | 5.87
55 | O=C(C1CN(c2c3c(nc4ccnn24)CCNCC3)C1)N1CCN(C2CCCC2)CC1 [Example 37.11] | 8.70
56 | c1ccc(OC2CN(c3c4c(nc5ccnn35)CCNCC4)C2)nc1 [Example 20.6] | 7.42
57 | Clc1cccnc1OC1CN(c2c3c(nc4ccnn24)CCNCC3)C1 [Example 20.11] | 6.94
58 | CN1CCc2nc3ccnn3c(N3CC(C(=O)N4CCC(N5CCCC5)CC4)C3)c2CC1 [Example 36.8] | 7.42
59 | Cn1c(C2CN(c3c4c(nc5ccnn35)CCNCC4)C2)nc2ccc(F)cc21 [Example 34.4] | 7.62
60 | O=C(C1CN(c2c3c(nc4ccnn24)CCNCC3)C1)N1CCCC1c1nccs1 (stereo not drawn) [Example 31.52] | 6.70
61 | CN(C)C1CN(C(=O)C2CN(c3c4c(nc5ccnn35)CCNCC4)C2)C1 [Example 37.33] | 8.15
62 | Cc1cccc(CN(C)C(=O)C2CN(c3c4c(nc5ccnn35)CCNCC4)C2)c1 [Example 31.49] | 7.29
63 | O=C(NCCC1CCCC1)C1CN(c2c3c(nc4ccnn24)CCNCC3)C1 [Example 37.62] | 8.00
64 | CC1CCCN1c1c2c(nc3ccnn13)CCNCC2 (stereo not drawn) [Example 1.13] | 5.64
65 | c1ccc(Cn2c(C3CN(c4c5c(nc6ccnn46)CCNCC5)C3)nc3ccccc32)cc1 [Example 34.28] | 6.73
66 | c1cncc(OC2CN(c3c4c(nc5ccnn35)CCNCC4)C2)c1 [Example 35.42] | 6.67
67 | O=C(C1CN(c2c3c(nc4ccnn24)CCNCC3)C1)N1CCN(Cc2ccc(F)cc2)CC1 [Example 37.23] | 8.22
68 | O=C(C1CN(c2c3c(nc4ccnn24)CCNCC3)C1)N1CCCC2(CCCc3ccccc32)C1 (stereo not drawn) [Example 31.172] | 6.12
69 | C[C@@H](NC(=O)C1CN(c2c3c(nc4ccnn24)CCNCC3)C1)C1CCCCC1 [Example 31.188] | 7.00
70 | CC#CCN(CC(C)C)C(=O)C1CN(c2c3c(nc4ccnn24)CCNCC3)C1 [Example 31.104] | 6.67
71 | CC1(C(=O)N2CCC3(CCOC3)CC2)CN(c2c3c(nc4ccnn24)CCNCC3)C1 [Example 32.4] | 5.37
72 | O=C(C1CN(c2c3c(nc4c(Br)cnn24)CCNCC3)C1)N1CCC2(CCC2)C1 [Example 31.133] | 7.22
73 | CN(Cc1nccs1)C(=O)C1CN(c2c3c(nc4ccnn24)CCNCC3)C1 [Example 31.13] | 7.00
74 | CC(C)N1CCCN(C(=O)C2CN(c3c4c(nc5ccnn35)CCN(C)CC4)C2)CC1 [Example 36.49] | 7.11
75 | CC1(C)CN(C(=O)C2CN(c3c4c(nc5ccnn35)CCNCC4)C2)Cc2ccccc21 [Example 31.177] | 6.21
76 | CC(=O)NC1CCN(C(=O)C2CN(c3c4c(nc5ccnn35)CCN(C)CC4)C2)CC1 [Example 36.28] | 6.42
77 | COCC1CN(c2c3c(nc4ccnn24)CCNCC3)C1 [Example 16, 10-(3-Methoxymethyl-azetidin-1-yl)-6,7,8,9-tetrahydro-5H-1,4,7,10a-tetraaza-cyclohepta[f]indene] | 6.68
78 | CC(C)N1CCN(C(=O)C2CN(c3c4c(nc5ccnn35)CCNCC4)C2)CC1 [Example 37.3] | 8.52

Reference: patent publication US20120165304A1, “6,7,8,9-Tetrahydro-5H-1,4,7,10a-tetraaza-cyclohept[f]indene derivatives, pharmaceutical compositions containing these compounds, their use and processes for preparing them” (BOEHRINGER INGELHEIM INTERNATIONAL GMBH, priority 2008, published 2012)
